Values quoted from earlier work in patent US20050148519A1, “Salts of pharmacologically active compounds” (priority 2003, published 2005).

Assays:
[1] = for Injection site reaction: intramuscular or subcutaneous for flunixin, route not given for the others
[2] = dog, oral 2.2, 6.6 and 11.0 mg/kg

Compound | Injection site reaction [1] | Time flunixin is present in tissues at a pharmaceutically effective amount (injection in a conventional format) [h] | Flunixin serum concentration immediately following administration (single dose 1.1 mg/kg) [µg/mL] | Flunixin serum concentration within 4 hours of administration (single dose 1.1 mg/kg) | Time post administration to undetectable flunixin serum levels (single dose 1.1 mg/kg) [h] | Side effects following oral dosing [2] | Time for injection site reactions to dissipate ([1]; in vivo)
CN(C)[C@@H]1C(O)=C(C(N)=O)C(=O)[C@@]2(O)C(O)=C3C(=O)c4c(O)cccc4[C@@](C)(O)[C@H]3[C@H](O)[C@@H]12 [Oxytetracyclines, oxytetracycline] | severe injection site inflammations and even necrosis |  |  |  |  |  | 
Cc1c(Nc2ncccc2C(=O)O)cccc1C(F)(F)F [flunixin] | can cause tissue damage | 6 to 12 | 8 to 13 | sub micro gram/mL | 6 to 12 | vomiting, diarrhea, blood in stools, and gastro-intestinal ulceration were common | 
CC[C@H]1OC(=O)C[C@@H](O)[C@H](C)[C@@H](O[C@@H]2O[C@H](C)[C@@H](O)[C@H](N(C)C)[C@H]2O)[C@@H](CCN2C[C@H](C)C[C@H](C)C2)C[C@@H](C)C(=O)/C=C/C(C)=C/[C@@H]1CO[C@@H]1O[C@H](C)[C@@H](O)[C@@H](OC)[C@H]1OC [tilmicosin] | mild injection site reactions |  |  |  |  |  | two to three days
